{"source": "the supplement of paper PMC6965134", "test": "TIMS collisional cross section (CCS, N2) of the lipid ion; higher = larger ion cross section", "conditions": "ionization mode: negative, one isomer drawn", "protocol": "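Lipid extracts of human plasma (NIST SRM 1950), mouse liver or HeLa cells were separated by nanoflow C18 LC (30 min gradient) and analysed by TIMS-PASEF on a timsTOF Pro. Ion mobility was calibrated with the Agilent tuning mix (negative mode ions) and converted to collisional cross sections (Mason–Schamp, N2).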", "note": "± gives the standard deviation of the averaged measurements.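 Further: lipids from MTBE extraction, five replicate injections per sample, 100 ms TIMS ramp spanning 0.6–1.95 Vs/cm², lipid identity assigned from PASEF MS/MS spectra.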"}
{"smiles": "CCCCCCCCCCCCCCCC(=O)O[C@H](COC(=O)CCCCCCCCCCCCCC)COP(=O)([O-])OCC[N+](C)(C)C", "note": "[PC 15:0_16:0@]", "values": [{"measurement": "TIMS collisional cross section", "setting": "sample type: Human plasma, ion (formula + adduct): [C39H78NO8P+HCOO] 1-", "value": 284.9, "unit": "Å²"}, {"measurement": "TIMS collisional cross section", "setting": "sample type: Human plasma, ion (formula + adduct): [C39H78NO8P+OAcO] 1-", "value": 290.8, "unit": "Å²"}]}
{"smiles": "CCCCCCCCCCCCCCCC(=O)O[C@H](COC(=O)CCCCCCCCCCCCCC)COP(=O)([O-])OCC[N+](C)(C)C", "note": "[PC 15:0_16:0]", "values": [{"measurement": "TIMS collisional cross section", "setting": "sample type: Human plasma, ion (formula + adduct): [C39H78NO8P-H] 1-", "value": 269.8, "unit": "Å²"}]}
{"smiles": "CCCCCCCCCCCCCCCCCC(=O)O[C@H](COC(=O)CCCCCCCCCCCCCC)COP(=O)([O-])OCC[N+](C)(C)C", "note": "[PC 15:0_18:0@]", "values": [{"measurement": "TIMS collisional cross section", "setting": "sample type: Human plasma, ion (formula + adduct): [C41H82NO8P+HCOO] 1-", "value": 291.1, "unit": "Å²"}]}
{"smiles": "CCCCCC/C=C\\CCCCCCCCCC(=O)O[C@H](COC(=O)CCCCCCCCCCCCCC)COP(=O)([O-])OCC[N+](C)(C)C", "note": "[PC 15:0_18:1]", "values": [{"measurement": "TIMS collisional cross section", "setting": "sample type: Human plasma, ion (formula + adduct): [C41H80NO8P+HCOO] 1-", "value": 288.8, "unit": "Å²"}]}
{"smiles": "CCCCC/C=C\\C/C=C\\CCCCCCCC(=O)O[C@H](COC(=O)CCCCCCCCCCCCCC)COP(=O)([O-])OCC[N+](C)(C)C", "note": "[PC 15:0_18:2]", "values": [{"measurement": "TIMS collisional cross section", "setting": "sample type: Human plasma, ion (formula + adduct): [C41H78NO8P+HCOO] 1-", "value": 288.2, "unit": "Å²"}, {"measurement": "TIMS collisional cross section", "setting": "sample type: Mouse Liver, ion (formula + adduct): [C41H78NO8P+HCOO] 1-", "value": 287.1, "unit": "Å²"}]}
{"smiles": "CCCCC/C=C\\C/C=C\\C/C=C\\C/C=C\\CCCC(=O)O[C@H](COC(=O)CCCCCCCCCCCCCC)COP(=O)([O-])OCC[N+](C)(C)C", "note": "[PC 15:0_20:4]", "values": [{"measurement": "TIMS collisional cross section", "setting": "sample type: Human plasma, ion (formula + adduct): [C43H78NO8P+HCOO] 1-", "value": 291, "unit": "Å²"}]}
{"smiles": "CC/C=C\\C/C=C\\C/C=C\\C/C=C\\C/C=C\\C/C=C\\CCC(=O)O[C@H](COC(=O)CCCCCCCCCCCCCC)COP(=O)([O-])OCC[N+](C)(C)C", "note": "[PC 15:0_22:6]", "values": [{"measurement": "TIMS collisional cross section", "setting": "sample type: Human plasma, ion (formula + adduct): [C45H78NO8P+HCOO] 1-", "value": 294.4, "unit": "Å²"}, {"measurement": "TIMS collisional cross section", "setting": "sample type: Mouse Liver, ion (formula + adduct): [C45H78NO8P+HCOO] 1-", "value": 294.4, "unit": "Å²"}]}
{"smiles": "CCCCC/C=C\\CCCCCCCC(=O)OC[C@H](COP(=O)([O-])OCC[N+](C)(C)C)OC(=O)CCCCCCCCC/C=C\\CCCCCCCC", "note": "[PC 15:1@_20:1]", "values": [{"measurement": "TIMS collisional cross section", "setting": "sample type: Mouse Liver, ion (formula + adduct): [C43H82NO8P-H] 1-", "value": 279.1, "unit": "Å²"}]}
{"smiles": "CCCCC/C=C\\C/C=C\\C/C=C\\C/C=C\\CCCC(=O)O[C@H](COC(=O)CCCCCCC/C=C\\CCCCC)COP(=O)([O-])OCC[N+](C)(C)C", "note": "[PC 15:1@_20:4]", "values": [{"measurement": "TIMS collisional cross section", "setting": "sample type: Human plasma, ion (formula + adduct): [C43H76NO8P-H] 1-", "value": 275, "unit": "Å²"}, {"measurement": "TIMS collisional cross section", "setting": "sample type: Mouse Liver, ion (formula + adduct): [C43H76NO8P-H] 1-", "value": 275.6, "unit": "Å²"}]}
{"smiles": "CCCCC/C=C\\C/C=C\\CCCCCCCC(=O)O[C@H](COC(=O)CCCCCCC/C=C\\CCCCC)COP(=O)([O-])OCC[N+](C)(C)C", "note": "[PC 15:1_18:2]", "values": [{"measurement": "TIMS collisional cross section", "setting": "sample type: Mouse Liver, ion (formula + adduct): [C41H76NO8P+HCOO] 1-", "value": 286.5, "unit": "Å²"}]}
{"smiles": "CCCCC/C=C\\C/C=C\\C/C=C\\CCCCC(=O)O[C@H](COC(=O)CCCCCCCCCCCCCCC)COP(=O)([O-])OCC[N+](C)(C)C", "note": "[PC 16:0@_18:3]", "values": [{"measurement": "TIMS collisional cross section", "setting": "sample type: Human plasma, ion (formula + adduct): [C42H78NO8P+AcO] 1-", "value": 295.1, "unit": "Å²"}]}
{"smiles": "CC/C=C\\C/C=C\\C/C=C\\C/C=C\\CCCCC(=O)O[C@H](COC(=O)CCCCCCCCCCCCCCC)COP(=O)([O-])OCC[N+](C)(C)C", "note": "[PC 16:0@_18:4]", "values": [{"measurement": "TIMS collisional cross section", "setting": "sample type: Mouse Liver, ion (formula + adduct): [C42H76NO8P+HCOO] 1-", "value": 287.6, "unit": "Å²"}]}
{"smiles": "CCCCC/C=C\\C/C=C\\C/C=C\\C/C=C\\C/C=C\\CCC(=O)O[C@H](COC(=O)CCCCCCCCCCCCCCC)COP(=O)([O-])OCC[N+](C)(C)C", "note": "[PC 16:0@_22:5]", "values": [{"measurement": "TIMS collisional cross section", "setting": "sample type: Human plasma, ion (formula + adduct): [C46H82NO8P-CH3] 1-", "value": "282.7 ± 0.42", "unit": "Å²"}, {"measurement": "TIMS collisional cross section", "setting": "sample type: Mouse Liver, ion (formula + adduct): [C46H82NO8P-CH3] 1-", "value": 282.4, "unit": "Å²"}]}
{"smiles": "CC/C=C\\C/C=C\\C/C=C\\C/C=C\\C/C=C\\C/C=C\\CCC(=O)O[C@H](COC(=O)CCCCCCCCCCCCCCC)COP(=O)([O-])OCC[N+](C)(C)C", "note": "[PC 16:0@_22:6]", "values": [{"measurement": "TIMS collisional cross section", "setting": "sample type: Mouse Liver, ion (formula + adduct): [C46H80NO8P-CH3] 1-", "value": 281.3, "unit": "Å²"}]}
{"smiles": "C=CC(=O)O[C@H](COC(=O)CCCCCCCCCCCCCCC)COP(=O)([O-])OCC[N+](C)(C)C", "note": "[PC 16:0_3:1@]", "values": [{"measurement": "TIMS collisional cross section", "setting": "sample type: Human plasma, ion (formula + adduct): [C27H52NO8P+OAcO] 1-", "value": 252.2, "unit": "Å²"}, {"measurement": "TIMS collisional cross section", "setting": "sample type: Mouse Liver, ion (formula + adduct): [C27H52NO8P+AcO] 1-", "value": 244.7, "unit": "Å²"}]}
{"smiles": "C=CC(=O)O[C@H](COC(=O)CCCCCCCCCCCCCCC)COP(=O)([O-])OCC[N+](C)(C)C", "note": "[PC 16:0_3:1]", "values": [{"measurement": "TIMS collisional cross section", "setting": "sample type: Human plasma, ion (formula + adduct): [C27H52NO8P+AcO] 1-", "value": 245.3, "unit": "Å²"}, {"measurement": "TIMS collisional cross section", "setting": "sample type: Mouse Liver, ion (formula + adduct): [C27H52NO8P+OAcO] 1-", "value": 252.2, "unit": "Å²"}]}
{"smiles": "C=CCCC(=O)O[C@H](COC(=O)CCCCCCCCCCCCCCC)COP(=O)([O-])OCC[N+](C)(C)C", "note": "[PC 16:0_5:1@]", "values": [{"measurement": "TIMS collisional cross section", "setting": "sample type: Mouse Liver, ion (formula + adduct): [C29H56NO8P+HCOO] 1-", "value": 247.5, "unit": "Å²"}]}
